Source: the supplement of paper PMC10307832

What was measured:
Experiment in all cases: relative viability (nuclei count vs DMSO), 5 days (fraction); higher = more cells survive
IA-LM = test system: IA-LM
Summary of the method: (§1)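 For relative viability, nuclei counts in treated wells were divided by those in vehicle wells. Lung cancer cell lines had been pin-tool dosed in 1536-well plates the day after seeding and cultured for 5 days, then fixed and stained in one step (final 0.05% Triton X-100, 1% formaldehyde, 1 ug/ml Hoechst) and imaged at 4×. Doses were one drug alone or a fixed anchor-drug dose plus five library-drug doses (not always all listed) in √10 steps, and values are duplicate-plate medians.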

A549 = test system: A549
Summary of the method: as §1

NCI-H1703 = test system: NCI-H1703
Summary of the method: as §1

Calu-6 = test system: Calu-6
Summary of the method: as §1

EBC-1 = test system: EBC-1
Summary of the method: as §1

NCI-H1563 = test system: NCI-H1563
Summary of the method: as §1

NCI-H1299 = test system: NCI-H1299
Summary of the method: as §1

NCI-H522 = test system: NCI-H522
Summary of the method: as §1

NCI-H2342 = test system: NCI-H2342
Summary of the method: as §1

SW 900 = test system: SW 900
Summary of the method: as §1

NCI-H1648 = test system: NCI-H1648
Summary of the method: as §1

`O=c1[nH]c2ccccc2n1C1CCN(CCCC(c2ccc(F)cc2)c2ccc(F)cc2)CC1` [Pimozide] + Cc1nc(NC(=O)N2CCC[C@H]2C(N)=O)sc1-c1ccnc(C(C)(C)C(F)(F)F)c1 [Alpelisib] (partner 2 µM) gave a relative viability (IA-LM; first compound 0.08 µM) of 0.695, a relative viability (IA-LM; first compound 0.253 µM) of 0.846 and a relative viability (IA-LM; first compound 0.8 µM) of 0.666. For the same molecule, the relative viability (IA-LM; first compound 2.53 µM) was 0.894, the relative viability (IA-LM; first compound 8 µM) was 0.853 and the relative viability (A549; first compound 0.08 µM) was 0.727. For the same molecule, the relative viability (A549; first compound 0.253 µM) was 0.762, the relative viability (A549; first compound 0.8 µM) was 0.678 and the relative viability (A549; first compound 2.53 µM) was 0.707. It also gave a relative viability (A549; first compound 8 µM) of 0.617, a relative viability (NCI-H1703; first compound 0.08 µM) of 0.323 and a relative viability (NCI-H1703; first compound 0.253 µM) of 0.325. For the same molecule, the relative viability (NCI-H1703; first compound 0.8 µM) was 0.385, the relative viability (NCI-H1703; first compound 2.53 µM) was 0.258 and the relative viability (NCI-H1703; first compound 8 µM) was 0.274. It also gave a relative viability (Calu-6; first compound 0.08 µM) of 0.938, a relative viability (Calu-6; first compound 0.253 µM) of 0.999 and a relative viability (Calu-6; first compound 0.8 µM) of 0.92. It also gave a relative viability (Calu-6; first compound 2.53 µM) of 0.844, a relative viability (Calu-6; first compound 8 µM) of 0.883 and a relative viability (EBC-1; first compound 0.08 µM) of 0.895. It also gave a relative viability (EBC-1; first compound 0.253 µM) of 0.724, a relative viability (EBC-1; first compound 0.8 µM) of 0.823 and a relative viability (EBC-1; first compound 2.53 µM) of 0.796. The relative viability (EBC-1; first compound 8 µM) was 0.728, the relative viability (NCI-H1563; first compound 0.08 µM) was 0.919 and the relative viability (NCI-H1563; first compound 0.253 µM) was 0.814. The relative viability (NCI-H1563; first compound 0.8 µM) was 0.819, the relative viability (NCI-H1563; first compound 2.53 µM) was 0.798 and the relative viability (NCI-H1563; first compound 8 µM) was 0.739. The relative viability (NCI-H1299; first compound 0.08 µM) was 1.04, the relative viability (NCI-H1299; first compound 0.253 µM) was 0.981 and the relative viability (NCI-H1299; first compound 0.8 µM) was 1.04. It also gave a relative viability (NCI-H1299; first compound 2.53 µM) of 1.07 and a relative viability (NCI-H1299; first compound 8 µM) of 1.12.
`Cc1cnc(-c2cnc(NCCNc3ccc(C#N)cn3)nc2-c2ccc(Cl)cc2Cl)[nH]1` + CS(=O)(=O)N1CCN(Cc2cc3nc(-c4cccc5[nH]ncc45)nc(N4CCOCC4)c3s2)CC1 [Pictilisib] (partner 1 µM) was tested, and the relative viability (IA-LM; first compound 0.08 µM) was 0.362, the relative viability (IA-LM; first compound 0.253 µM) was 0.408 and the relative viability (IA-LM; first compound 2.53 µM) was 0.483. It also gave a relative viability (A549; first compound 0.08 µM) of 0.597, a relative viability (A549; first compound 0.253 µM) of 0.482 and a relative viability (A549; first compound 0.8 µM) of 0.764. It also gave a relative viability (A549; first compound 2.53 µM) of 0.775, a relative viability (NCI-H1703; first compound 0.08 µM) of 0.256 and a relative viability (NCI-H1703; first compound 0.253 µM) of 0.252. The relative viability (NCI-H1703; first compound 0.8 µM) was 0.23, the relative viability (NCI-H1703; first compound 2.53 µM) was 0.314 and the relative viability (Calu-6; first compound 0.08 µM) was 0.923. For the same molecule, the relative viability (Calu-6; first compound 0.253 µM) was 0.934, the relative viability (Calu-6; first compound 0.8 µM) was 1.05 and the relative viability (Calu-6; first compound 2.53 µM) was 0.911. It also gave a relative viability (EBC-1; first compound 0.08 µM) of 0.421, a relative viability (EBC-1; first compound 0.253 µM) of 0.368 and a relative viability (EBC-1; first compound 0.8 µM) of 0.549. It also gave a relative viability (EBC-1; first compound 2.53 µM) of 0.567, a relative viability (NCI-H1563; first compound 0.08 µM) of 0.649 and a relative viability (NCI-H1563; first compound 0.253 µM) of 0.72. The relative viability (NCI-H1563; first compound 0.8 µM) was 0.709, the relative viability (NCI-H1563; first compound 2.53 µM) was 0.725 and the relative viability (NCI-H1299; first compound 0.08 µM) was 0.822. The relative viability (NCI-H1299; first compound 0.253 µM) was 0.754, the relative viability (NCI-H1299; first compound 0.8 µM) was 0.861 and the relative viability (NCI-H1299; first compound 2.53 µM) was 0.426.
In the case of `O=c1[nH]c2ccccc2n1C1CCN(CCCC(c2ccc(F)cc2)c2ccc(F)cc2)CC1` [Pimozide] + CC(=O)c1c(C)c2cnc(Nc3ccc(N4CCNCC4)cn3)nc2n(C2CCCC2)c1=O [Palbociclib] (partner 0.5 µM), the relative viability (NCI-H522; first compound 0.08 µM) is reported as 0.766, the relative viability (NCI-H522; first compound 0.253 µM) is reported as 0.785 and the relative viability (NCI-H522; first compound 0.8 µM) is reported as 0.94. The relative viability (NCI-H522; first compound 2.53 µM) was 0.891, the relative viability (NCI-H522; first compound 8 µM) was 0.901 and the relative viability (NCI-H2342; first compound 0.08 µM) was 0.573. For the same molecule, the relative viability (NCI-H2342; first compound 0.253 µM) was 0.526, the relative viability (NCI-H2342; first compound 0.8 µM) was 0.436 and the relative viability (NCI-H2342; first compound 2.53 µM) was 0.484. For the same molecule, the relative viability (NCI-H2342; first compound 8 µM) was 0.507, the relative viability (SW 900; first compound 0.08 µM) was 0.526 and the relative viability (SW 900; first compound 0.253 µM) was 0.572. The relative viability (SW 900; first compound 2.53 µM) was 0.511, the relative viability (SW 900; first compound 8 µM) was 0.443 and the relative viability (NCI-H1648; first compound 0.08 µM) was 0.301. The relative viability (NCI-H1648; first compound 0.8 µM) was 0.233, the relative viability (NCI-H1648; first compound 2.53 µM) was 0.282 and the relative viability (NCI-H1648; first compound 8 µM) was 0.31.
